Experimental findings from patent publication US11999727B2 (Tango Therapeutics, Inc., priority 2020, dated 2024) are described below.

A value given as a limit tells only on which side of the number the result lay.

In experiment [1] the target is T1, PRMT5 (Homo sapiens, UniProt O14744).
T1 construct: purchased Viva (custom protein)
As to the kind of experiment: PRMT5 biochemical IC50 assay with SAM as cofactor. To be noted: PRMT5, SAM as cofactor; read-out: SAM IC50.

Experiment [2] deals with T1, PRMT5. As to the kind of experiment: PRMT5 biochemical IC50 assay with no cofactor. As to conditions: PRMT5, no cofactor. The text has this: Table 1 indicates IC50 values (μM) against PRMT5 for exemplary compounds in the presence of SAM as cofactor, with no cofactor, and with MTA as cofactor, respectively (columns 4-6). […] Ki values can be calculated from the IC50 values as described in the Examples section. As detailed in the Examples section, for the assay performed in the presence of SAM, IC50=Ki×1.5 (Ki=IC50/1.5).

The target in experiment [3] is T1, PRMT5. As to the kind of experiment: PRMT5 biochemical IC50 assay with MTA as cofactor. To be noted: PRMT5, MTA as cofactor; read-out: MTA IC50.
For experiment [4], the system named is HAP1 MTAP-intact cell line. As to the kind of experiment: SDMA in-cell western assay, HAP1 MTAP-intact. Type of experiment: cell-based. As to conditions: Homo sapiens, HAP1, SDMA in-cell western, HAP1 MTAP-intact; read-out: MTAP HAP1 intact IC50. A digest of the protocol: (§1)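 Compounds were tested in HAP1 cells differing only in MTAP status (endogenous expression versus null). Cellular SDMA levels were then measured by in-cell western, giving an IC50 in each background.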

Experiment [5] deals with HAP1 MTAP-deleted cell line. The experiment is described as follows: SDMA in-cell western assay, HAP1 MTAP-deleted. Type of experiment: cell-based. As to conditions: for IC50: Homo sapiens, HAP1, SDMA in-cell western, HAP1 MTAP-deleted; for MTAP intact/deleted ratio: SDMA in-cell western. A digest of the protocol:
as §1

Experiment [6] concerns HAP1 MTAP-deleted cell line. As to the kind of experiment: Viability assay, MTAP-deleted cell line. It counts as cell-based. To be noted: read-out: HAP1 MTAP deleted viability. The text has this: Table 1 additionally indicates IC50 values in a viability assay for the MTAP-deleted cell line (column 10), indicating the effect of treatment with compound on cell survival.
Where [7] appears, read: read-out: No Cofactor/ rel IC50.
Setting [8] is: read-out: HAP 1 MTAP deleted IC50.
Setting [9] is: IC50 ratio HAP1 MTAP-intact / HAP1 MTAP-deleted.
Where [10] appears, read: Homo sapiens, HAP1, viability, HAP1 MTAP-deleted cell line.
Where [11] appears, read: Homo sapiens, HAP1, viability assay, MTAP-deleted cell line.

T1 sequence (O14744 whole entry): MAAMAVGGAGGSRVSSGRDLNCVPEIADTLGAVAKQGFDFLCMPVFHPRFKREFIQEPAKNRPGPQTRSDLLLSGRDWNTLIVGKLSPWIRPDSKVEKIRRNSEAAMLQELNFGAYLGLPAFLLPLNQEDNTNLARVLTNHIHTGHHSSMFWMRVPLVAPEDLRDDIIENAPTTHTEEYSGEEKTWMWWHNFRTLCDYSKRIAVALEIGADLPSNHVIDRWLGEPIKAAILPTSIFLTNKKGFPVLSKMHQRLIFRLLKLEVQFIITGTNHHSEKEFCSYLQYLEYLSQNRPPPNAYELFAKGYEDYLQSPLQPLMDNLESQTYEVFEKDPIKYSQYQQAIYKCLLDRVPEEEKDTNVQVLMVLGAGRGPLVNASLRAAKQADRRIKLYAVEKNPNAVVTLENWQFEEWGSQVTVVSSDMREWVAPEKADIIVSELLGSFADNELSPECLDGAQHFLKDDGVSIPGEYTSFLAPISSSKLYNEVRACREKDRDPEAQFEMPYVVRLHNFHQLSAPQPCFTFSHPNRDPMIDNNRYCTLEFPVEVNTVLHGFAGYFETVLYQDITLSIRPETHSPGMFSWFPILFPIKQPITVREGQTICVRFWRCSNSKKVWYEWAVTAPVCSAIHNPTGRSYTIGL
T1 sequence (Q9BQA1 whole entry partner): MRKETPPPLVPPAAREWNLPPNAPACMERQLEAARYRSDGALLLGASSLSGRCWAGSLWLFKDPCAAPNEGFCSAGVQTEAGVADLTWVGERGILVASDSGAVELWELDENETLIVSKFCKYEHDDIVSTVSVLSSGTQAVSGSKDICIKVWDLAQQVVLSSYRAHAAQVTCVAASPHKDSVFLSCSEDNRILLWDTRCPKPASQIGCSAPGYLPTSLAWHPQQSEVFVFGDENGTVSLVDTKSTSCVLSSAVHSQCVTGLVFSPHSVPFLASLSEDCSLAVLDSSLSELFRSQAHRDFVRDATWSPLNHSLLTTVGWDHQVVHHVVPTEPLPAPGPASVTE

Turning to `CCc1cc(NC(=O)C(=O)N2C[C@@H](C)CC[C@@H]2c2ccc3nn([C@@H]4CCN(C)C4)cc3c2)cnc1N` (racemic) [Compound 1398, N-(6-Amino-5-ethyl-3-pyridyl)-2-oxo-2-[rac-(2R,5S)-5-methyl-2-[2-[rac-(3R)-1-methylpyrrolidin-3-yl]indazol-5-yl]-1-piperidyl]acetamide], the IC50 on PRMT5 [1] is 50 to 500 nM; at PRMT5 [2] (setting [7]), 50 to 500 nM; on PRMT5 [3], less than 50 nM; in experiment [4], less than 100 nM; in experiment [5] (setting [8]), less than 100 nM; in experiment [6] (setting [10]), less than 1000 nM. For the same compound, in experiment [5] (setting [9]), the “MTAP intact/deleted ratio” value is given as “A (an IC50 ratio greater than or equal to 10 fold)”.
`Cc1cc(NC(=O)C(=O)N2C[C@H](C)CC[C@H]2c2ccc3c(c2)CCC(=O)N3)cnc1C` (relative stereo) [Compound 632]: the IC50 at PRMT5 [1] was 50 to 500 nM; at PRMT5 [2] (read-out: No Cofactor/rel IC50) it was less than 50 nM; on PRMT5 [3] it was less than 50 nM; in experiment [4], 100 to 1000 nM; in experiment [5] (setting [8]) it was less than 100 nM; in experiment [6] (Homo sapiens, HAP1, viability IC50, MTAP-deleted cell line) it was less than 1000 nM. Besides, the MTAP intact/deleted ratio entry in experiment [5] (setting [9]) is reported as “A (an IC50 ratio greater than or equal to 10 fold)”.
Consider `CO[C@H]1C[C@H](c2ccc3scnc3c2)N(C(=O)C(=O)Nc2cnc(N)c(C)c2)C[C@H]1C` (relative stereo) [Compound 1216], for which the IC50 on PRMT5 [1] is 50 to 500 nM; at PRMT5 [2] (read-out: No Cofactor/rel IC50) it was less than 50 nM; at PRMT5 [3], less than 50 nM; in experiment [4], less than 100 nM; in experiment [5] (read-out: HAP1 MTAP deleted IC50), less than 100 nM; in experiment [6] (setting [11]) it was less than 1000 nM. The MTAP intact/deleted ratio entry in experiment [5] (IC50 ratio HAP1 MTAP-intact vs HAP1 MTAP-deleted) is reported as “B (an IC50 ratio greater than or equal to 3 fold but lower than 10 fold)”.
In the case of `CCc1cc(NC(=O)C(=O)N2C[C@@H](C)CC[C@@H]2c2ccc3sc(C(F)(F)CN(C)C)nc3c2)cnc1N` (relative stereo) [Compound 1280], the IC50 at PRMT5 [1] was 50 to 500 nM; on PRMT5 [2] (setting [7]), less than 50 nM; at PRMT5 [3], less than 50 nM; in experiment [4], 100 to 1000 nM; in experiment [5] (setting [8]), less than 100 nM; in experiment [6] (setting [10]), less than 1000 nM. Also, the “MTAP intact/deleted ratio” value in experiment [5] (setting [9]) is “A (an IC50 ratio greater than or equal to 10 fold)”.
In the case of `CCc1cc(NC(=O)C(=O)N2C[C@@H](C)CC[C@@H]2c2ccc(N3CC[C@@H]4CN(C)C[C@@H]4C3)cc2)cnc1N` (relative stereo) [Compound 1349], the IC50 is 50 to 500 nM at PRMT5 [1]; less than 50 nM on PRMT5 [2] (setting [7]); less than 50 nM at PRMT5 [3]; 100 to 1000 nM in experiment [4]; less than 100 nM in experiment [5] (setting [8]); less than 1000 nM in experiment [6] (setting [10]). Moreover, in experiment [5] (setting [9]), the “MTAP intact/deleted ratio” value was “A (an IC50 ratio greater than or equal to 10 fold)”.
As for `Cc1cncc(NC(=O)C(=O)N2C[C@H](C)CC[C@H]2c2cccc(C)c2)c1` (single isomer, unassigned) [Compound 10], the IC50 was 50 to 500 nM at PRMT5 [1]; 50 to 500 nM at PRMT5 [2] (setting [7]); 50 to 500 nM on PRMT5 [3]; more than 1000 nM in experiment [4]; more than 1000 nM in experiment [5] (setting [8]); more than 10000 nM in experiment [6] (setting [11]). In experiment [5] (setting [9]), the “MTAP intact/deleted ratio” value is “B (an IC50 ratio greater than or equal to 3 fold but lower than 10 fold)”.
As for `Cc1cncc(NC(=O)C(=O)N2C[C@@H](C)CC[C@@H]2c2cccc(C)c2)c1` (single isomer, unassigned) [Compound 11], the IC50 at PRMT5 [1] is more than 500 nM; at PRMT5 [2] (setting [7]), more than 500 nM; on PRMT5 [3], more than 500 nM; in experiment [4], more than 1000 nM; in experiment [5] (setting [8]), more than 1000 nM; in experiment [6] (setting [11]), more than 10000 nM. For the same compound, the “MTAP intact/deleted ratio” value in experiment [5] (setting [9]) is “C (an IC50 ratio of less than 3 fold)”.
As for `Cc1ccc([C@@H]2CC[C@@H](C)CN2C(=O)C(=O)Nc2cncc(C)c2)cc1` (single isomer, unassigned) [Compound 16], the IC50 on PRMT5 [1] is more than 500 nM; at PRMT5 [2] (setting [7]), more than 500 nM; on PRMT5 [3], 50 to 500 nM; in experiment [4], more than 1000 nM; in experiment [5] (setting [8]) it was more than 1000 nM; in experiment [6] (setting [11]), more than 10000 nM. The “MTAP intact/deleted ratio” value in experiment [5] (setting [9]) was “B (an IC50 ratio greater than or equal to 3 fold but lower than 10 fold)”.
Take `CC[C@@H]1CC[C@@H](c2ccccc2)N(C(=O)C(=O)Nc2cncc(C)c2)C1` (single isomer, unassigned) [Compound 17]: the IC50 on PRMT5 [1] is more than 500 nM; on PRMT5 [2] (setting [7]), more than 500 nM; at PRMT5 [3] it was 50 to 500 nM; in experiment [4], more than 1000 nM; in experiment [5] (setting [8]), more than 1000 nM; in experiment [6] (setting [11]), more than 10000 nM. The “MTAP intact/deleted ratio” value in experiment [5] (setting [9]) is listed as “B (an IC50 ratio greater than or equal to 3 fold but lower than 10 fold)”.
In the case of `Cc1cncc(NC(=O)C(=O)N2C[C@H](C)CC[C@H]2c2ccc(C)c(C)c2)c1` (single isomer, unassigned) [Compound 21], the IC50 on PRMT5 [1] was 50 to 500 nM; at PRMT5 [2] (setting [7]) it was 50 to 500 nM; at PRMT5 [3], 50 to 500 nM; in experiment [4], more than 1000 nM; in experiment [5] (setting [8]) it was more than 1000 nM; in experiment [6] (setting [11]) it was more than 10000 nM. Besides, the “MTAP intact/deleted ratio” value in experiment [5] (setting [9]) is given as “B (an IC50 ratio greater than or equal to 3 fold but lower than 10 fold)”.
For `Cc1cc(NC(=O)C(=O)N2CCCC[C@H]2c2cccs2)cnc1N` (single isomer, unassigned) [Compound 22], the IC50 on PRMT5 [1] was more than 500 nM; at PRMT5 [2] (setting [7]), more than 500 nM; on PRMT5 [3], 50 to 500 nM; in experiment [4], more than 1000 nM; in experiment [5] (setting [8]), more than 1000 nM; in experiment [6] (setting [11]) it was more than 10000 nM. Moreover, in experiment [5] (setting [9]), the “MTAP intact/deleted ratio” value is listed as “B (an IC50 ratio greater than or equal to 3 fold but lower than 10 fold)”.
With `Cc1cc(NC(=O)C(=O)N2CCCC[C@@H]2c2cccs2)cnc1N` (single isomer, unassigned) [Compound 24], the IC50 on PRMT5 [1] was 50 to 500 nM; at PRMT5 [2] (setting [7]), 50 to 500 nM; on PRMT5 [3], less than 50 nM; in experiment [4] it was more than 1000 nM; in experiment [5] (setting [8]) it was less than 100 nM; in experiment [6] (setting [11]) it was more than 10000 nM. Further, in experiment [5] (setting [9]), the “MTAP intact/deleted ratio” value is listed as “A (an IC50 ratio greater than or equal to 10 fold)”.
In the case of `Cc1cc(NC(=O)C(=O)N2CCCC[C@H]2C2CCCCC2)cnc1N` (single isomer, unassigned) [Compound 34], the IC50 was more than 500 nM on PRMT5 [1]; more than 500 nM at PRMT5 [2] (setting [7]); more than 500 nM on PRMT5 [3]; more than 1000 nM in experiment [4]; more than 1000 nM in experiment [5] (setting [8]); more than 10000 nM in experiment [6] (setting [11]). The “MTAP intact/deleted ratio” value in experiment [5] (setting [9]) is given as “C (an IC50 ratio of less than 3 fold)”.
Take `Cc1cc(NC(=O)C(=O)N2CCCC[C@@H]2C2CCCCC2)cnc1N` (single isomer, unassigned) [Compound 42]: the IC50 was 50 to 500 nM at PRMT5 [1]; 50 to 500 nM at PRMT5 [2] (setting [7]); less than 50 nM on PRMT5 [3]; more than 1000 nM in experiment [4]; less than 100 nM in experiment [5] (setting [8]); 1000 to 10000 nM in experiment [6] (setting [11]). The “MTAP intact/deleted ratio” value in experiment [5] (setting [9]) is given as “A (an IC50 ratio greater than or equal to 10 fold)”.
As for `Cn1nccc1C1CCCCN1C(=O)C(=O)Nc1cncc(C(N)=O)c1` (single isomer, unassigned) [Compound 46], the IC50 on PRMT5 [1] is 50 to 500 nM; on PRMT5 [2] (setting [7]), 50 to 500 nM; at PRMT5 [3], less than 50 nM; in experiment [4], more than 1000 nM; in experiment [5] (setting [8]) it was 100 to 1000 nM; in experiment [6] (viability assay, MTAP-deleted cell line), more than 10000 nM. Also, the “MTAP intact/deleted ratio” value in experiment [5] (setting [9]) was “A (an IC50 ratio greater than or equal to 10 fold)”.
